The values below come from patent publication US10682323B2, “Therapeutic agent for glaucoma” (TOA EIYO LTD., priority 2016, dated 2020).

Data set [1] in a line: Determination of Log D value (flask shaking method). It is filed as physicochemical. The following applies: pH 6.8; partition between n-octanol and second solution for the disintegration test (16th revised Japanese Pharmacopoeia), room temperature. The method, then: More specifically, the Log D is more preferably 1.6 or more and 2.3 or less, still more preferably 1.8 or more and 2.2 or less, and particularly preferably 1.8 or more and 2.1 or less. Here, the Log D value in the present invention is a compound partition coefficient between n-octanol and a second solution of a disintegration test of the 16th revised Japanese Pharmacopoeia.
The Log D value was determined using a flask shaking method, where a test compound partition coefficient between n-octanol and the second solution for the disintegration test defined in the 16th revised Japanese Pharmacopoeia was calculated. Specifically, in a microtube containing 2 mg of the test compound, n-octanol (0.25 mL) and the second solution for the disintegration test (0.25 mL) were mixed. The tube was shaken in a multi shaker at room temperature for 60 minutes, and allowed to stand until the two phases were completely separated. In the microtube, 10 μL of an n-octanol phase was diluted with 190 μL of 85% methanol and mixed, thereby obtaining an organic phase test solution. 100 μL of the second solution phase for the disintegration test was diluted with 100 μL of 50% methanol, and mixed, thereby obtaining an aqueous phase test solution. The organic phase test solution and the aqueous phase test solution were filtered, respectively, and the concentration of the test compound in these test solutions were measured, using high performance liquid chromatography. Then, from the measured concentration and dilution rate, the Log D was calculated.
That is, the Log D of the present specification is represented by the following equation: Log D=Log10([concentration of test compound in organic phase test solution]/[concentration of test compound in aqueous phase test solution])+1 [Equation 1]
The second solution for the disintegration test herein refers to, as defined in the 16th revised Japanese Pharmacopoeia, a liquid obtained by adding to 250 mL of a 0.2 mol/L potassium dihydrogenphosphate reagent, 118 mL of a 0.2 mol/L sodium hydroxide reagent, and water for adjusting to 1000 mL volume.

The test system of data set [2] is Rabbits with normal intraocular pressure. The data set is described as follows: Influence on intraocular pressure in rabbits with normal intraocular pressure. The class given is in vivo. The following applies: rabbit, 50 μL of 0.1 w/v % solution instilled into one eye, three hours after administration, saline eye minus test eye, average of three. The method, then:
Rabbits (strain: Std:NZW, sex: male) with normal intraocular pressure were acclimated to breeding environment for more than three weeks, and subjected to test (three rabbits per one group).
A test compound was weighed, and a required amount of a 10 mmol/L or 20 mmol/L tris hydrochloric acid buffer solution was added thereto with a micropipette and dissolved therein. If necessary, a 1 mol/L hydrochloric acid or a 1 mol/L sodium hydroxide solution was used to prepare a physiological pH, to obtain the test compound solution (0.1 w/v % solution).
50 μL of the test compound solution was instilled into one eye, and 50 μL of a saline solution was instilled into the other eye as a negative control. Three hours after administration, intraocular pressure was measured. In addition, the measurement of intraocular pressure was repeated in the manner of right eye→left eye→right eye→left eye→ . . . , and continued until the changes of three consecutive intraocular pressures of the right eye and the left eye were within 1 mmHg, respectively. The average of three intraocular pressures at that time was recorded as the intraocular pressure at that time. In addition, ΔIOP (mmHg) was calculated by subtracting the intraocular pressure of the eye for instillation of the test compound solution from the intraocular pressure of the eye for instillation of the saline solution.
In addition, the data represents an average of three tests per one group.

The logD is the decadic logarithm of the distribution of all forms, ionised or not, between an organic phase and buffer at a given pH. A higher logD goes with a more lipophilic compound. Take `O=C(O)CCCCN(Cc1ccc(C(=O)O)cc1)C[C@H](OCc1ccc(CCc2ccc(Cl)cc2)cc1)c1ccccc1` [Compound No. 6, (−)-4-([N-(4-carboxybutyl)-N-[(2R)-2-[4-[2-(4-chlorophenyl)ethyl]benzyloxy]-2-phenylethyl]amino]methyl)benzoic acid]: the logD in data set [1] worked out at 2.02. The same molecule registered a ΔIOP in data set [2] of 3.4 mmHg.
`N#Cc1cccc([C@H](CN(CCCCC(=O)O)Cc2ccc(C(=O)O)cc2)OCc2ccc(Oc3ccccc3)cc2)c1` [Comparative Compound 3, reference compound] came in with a log distribution coefficient (logD) in data set [1] of 1.32. In data set [2], this molecule came in with a ΔIOP of 1.1 mmHg.
The matching figures for `O=C(O)CCCCN(Cc1ccc(C(=O)O)cc1)C[C@H](OCc1ccc(CCc2ccccc2)cc1)c1ccccc1` [Compound No. 14, (−)-4-([N-(4-carboxybutyl)-N-[(2R)-2-[4-(2-phenylethyl)benzyloxy]-2-phenylethyl]amino]methyl)benzoic acid]: 2.04 and 5.0 mmHg.
In the same order, the values of `O=C(O)CCCCN(CCc1ccccc1OCc1ccc(CCc2ccccc2)cc1)Cc1ccc(C(=O)O)cc1` [Comparative Compound 1, reference compound] are 1.5 and 0.3 mmHg.
`O=C(O)CCCCN(CCc1ccccc1OCc1ccc(CCc2ccccc2)cc1)C1COc2cc(C(=O)O)ccc21` (centres unmarked) [Comparative Compound 2, reference compound]: the logD in data set [1] amounted to 2.59. Further, the ΔIOP in data set [2] amounted to 1.5 mmHg.
In the same order, the values of `O=C(O)CCCCN(CCc1ccccc1OCc1cccc2c1CCCC2)[C@H]1CCCc2cc(C(=O)O)ccc21` [Compound No. 8, (+)-(5S)-5-[N-(4-carboxybutyl)-N-[2-[2-(5,6,7,8-tetrahydronaphthalene-1-ylmethoxy)phenyl]ethyl]amino]-5,6,7,8-tetrahydronaphthalene-2-carboxylic acid] are 1.87 and 5.2 mmHg.
The matching figures for `CC(C)(C)c1cc(CO[C@@H](CN(CCCCC(=O)O)Cc2ccc(C(=O)O)cc2)c2ccccc2)cc(C(C)(C)C)c1` [Comparative Compound 4, reference compound]: 2.78 and 0.2 mmHg.
